Data as given in PubChem BioAssay AID330 (DTP/NCI, 2004).
Several values for one entry are separate records, joined by “and”; a condition that tells them apart may be missing. Equal values may be shown once. Toxic doses and inconclusive results are not listed.

System: P388 leukemia ip, CD2F1 mice, survival T/C
Assay: NCI In Vivo Anticancer Drug Screen. Data for tumor model P388 Leukemia (intraperitoneal) in CD2F1 (CDF1) mice
Conditions: endpoint: median survival time, higher = longer survival
Summary of the method: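 Mice carrying the transplanted tumor received test compound or vehicle. Survival was recorded in each group, and the value is the treated-group measurement divided by that of the vehicle-treated control group.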

[1] = dose: 50.0 mg/kg/injection, schedule: Q01DX009 (ip), vehicle: saline
[2] = dose: 100.0 mg/kg/injection, schedule: Q01DX009 (ip), vehicle: saline
[3] = dose: 200.0 mg/kg/injection, schedule: Q01DX009 (ip), vehicle: saline
[4] = dose: 50.0 mg/kg/injection, schedule: Q01DX009 (ip), vehicle: saline with Tween-80
[5] = dose: 100.0 mg/kg/injection, schedule: Q01DX009 (ip), vehicle: saline with Tween-80
[6] = dose: 200.0 mg/kg/injection, schedule: Q01DX009 (ip), vehicle: saline with Tween-80
[7] = dose: 50.0 mg/kg/injection, schedule: Q01DX005 (ip), vehicle: Klucel (hydroxypropylcellulose) (HPC)
[8] = dose: 100.0 mg/kg/injection, schedule: Q01DX005 (ip), vehicle: Klucel (hydroxypropylcellulose) (HPC)
[9] = dose: 200.0 mg/kg/injection, schedule: Q01DX005 (ip), vehicle: Klucel (hydroxypropylcellulose) (HPC)
[10] = dose: 400.0 mg/kg/injection, schedule: Q01DX009 (ip), vehicle: saline with Tween-80
[11] = dose: 50.0 mg/kg/injection, schedule: Q01DX009 (ip), vehicle: Klucel (hydroxypropylcellulose) (HPC)
[12] = dose: 100.0 mg/kg/injection, schedule: Q01DX009 (ip), vehicle: Klucel (hydroxypropylcellulose) (HPC)
[13] = dose: 200.0 mg/kg/injection, schedule: Q01DX009 (ip), vehicle: Klucel (hydroxypropylcellulose) (HPC)
[14] = dose: 60.0 mg/kg/injection, schedule: Q01DX005 (ip), vehicle: saline with Tween-80
[15] = dose: 120.0 mg/kg/injection, schedule: Q01DX005 (ip), vehicle: saline with Tween-80
[16] = dose: 240.0 mg/kg/injection, schedule: Q01DX005 (ip), vehicle: saline with Tween-80

In the case of `CCN(Cc1ccc(CN(CC)C(=O)c2sc3ccccc3c2Cl)cc1)C(=O)c1sc2ccccc2c1Cl`, the T/C [1] is reported as 101 % of control, the T/C [2] is reported as 100 % of control and the T/C [3] is reported as 93 % of control.

With `COC1(Cl)CC1C#N` (stereo not given) the T/C [4] was 117 % of control, the T/C [5] was 96 % of control and the T/C [6] was 105 % of control.

In the case of `CC/C(=N/NS(=O)(=O)c1ccc(C)cc1)c1ccc(C)c(C)c1`, the T/C [1] is reported as 98 % of control, the T/C [2] is reported as 90 % of control and the T/C [3] is reported as 104 % of control.

With `NC1(C(=O)O)CCc2ccccc2C1` (stereo not given) the T/C [7] was 104 % of control, the T/C [8] was 102 % of control and the T/C [9] was 100 % of control.

For `CCOC(=O)c1ccc(NC(=O)Nc2nccs2)cc1`, the T/C [6] was 162 % of control and the T/C [10] was 92 % of control.

For `COCC1=C(C)CC(C(C)(C)C(=O)OC)C1=O` (stereo not given), the T/C (dose: 100.0 mg/kg/injection, schedule: Q01DX001 (ip), vehicle: saline) was 101 % of control, the T/C (dose: 200.0 mg/kg/injection, schedule: Q01DX001 (ip), vehicle: saline) was 101 % of control and the T/C (dose: 400.0 mg/kg/injection, schedule: Q01DX001 (ip), vehicle: saline) was 104 % of control.

In the case of `COc1ccc(OC)c(N2C(=O)C(Cl)=C(Cl)C2=O)c1`, the T/C (dose: 12.5 mg/kg/injection, schedule: Q01DX001 (ip), vehicle: saline with Tween-80) is reported as 100 % of control, the T/C (dose: 25.0 mg/kg/injection, schedule: Q01DX001 (ip), vehicle: saline with Tween-80) is reported as 100 % of control and the T/C (dose: 50.0 mg/kg/injection, schedule: Q01DX001 (ip), vehicle: saline with Tween-80) is reported as 114 % of control.

`Nc1nc2[nH]ncc2c(=O)[nH]1` was tested, and the T/C (dose: 25.0 mg/kg/injection, schedule: Q01DX009 (ip), vehicle: saline with Tween-80) was 90 % of control, the T/C [4] was 100 % of control and the T/C (dose: 50.0 mg/kg/injection, schedule: Q04DX003 (ip), vehicle: saline with Tween-80) was 104 % of control. For the same compound, the T/C [5] was 90 % of control and the T/C (dose: 100.0 mg/kg/injection, schedule: Q04DX003 (ip), vehicle: saline with Tween-80) was 109 % of control.

For `O=c1c(Cl)c2oc3cc([N+](=O)[O-])ccc3nc-2c(Cl)c1Cl`, the T/C [11] was 107 % of control, the T/C [12] was 99 % of control and the T/C [13] was 91 % of control.

`CCCCOC(=O)NC(=O)c1cc2cc(I)cc(I)c2oc1=O` was tested, and the T/C [14] was 91 % of control, the T/C [15] was 94 % of control and the T/C [16] was 94 % of control.

With `COc1cc(OC)c(C(C)=O)c(OC)c1OC` the T/C [4] was 106 % of control, the T/C [5] was 113 % of control and the T/C [6] was 106 % of control.

For `O=C1C(O)=C(O)C(=O)C(O)=C1O`, the T/C [1] was 108 % of control, the T/C [2] was 111 % of control and the T/C [3] was 117 % of control.

For `OCCCN1CCCCC1CO` (stereo not given), the T/C [4] was 116 % of control and the T/C [6] was 150 % of control.

For `CC(N[Si](c1ccccc1)(c1ccccc1)C(C)(C)C)c1ccccc1` (stereo not given), the T/C (dose: 50.0 mg/kg/injection, schedule: Q01DX005 (ip), vehicle: saline with Tween-80) was 98 % of control, the T/C (dose: 100.0 mg/kg/injection, schedule: Q01DX005 (ip), vehicle: saline with Tween-80) was 97 % of control and the T/C (dose: 200.0 mg/kg/injection, schedule: Q01DX005 (ip), vehicle: saline with Tween-80) was 97 % of control.

For `CN(C)CCNC(=O)c1ccc(C(=O)NCCN(C)C)c2c(C(=O)NCCN(C)C)ccc(C(=O)NCCN(C)C)c12`, the T/C (dose: 1.56 mg/kg/injection, schedule: Q01DX005 (ip), vehicle: saline with Tween-80) was 100 % of control, the T/C (dose: 3.13 mg/kg/injection, schedule: Q01DX005 (ip), vehicle: saline with Tween-80) was 106 % of control and the T/C (dose: 6.25 mg/kg/injection, schedule: Q01DX005 (ip), vehicle: saline with Tween-80) was 102 % of control and 109 % of control. For the same compound, the T/C (dose: 12.5 mg/kg/injection, schedule: Q01DX005 (ip), vehicle: saline with Tween-80) was 108 % of control.

For `Nc1nnc(Cc2ccc(Cl)cc2)o1`, the T/C [14] was 95 % of control, the T/C [15] was 105 % of control and the T/C [16] was 105 % of control.

For `O=C(Nc1ccc(S(=O)(=O)F)cc1)Oc1ccc([N+](=O)[O-])cc1`, the T/C [14] was 121 % of control, the T/C [15] was 101 % of control and the T/C [16] was 86 % of control.

With `C=C1N(C)c2ccccc2C1(C)C` the T/C (dose: 4.0 mg/kg/injection, schedule: Q01DX009 (ip), vehicle: saline with Tween-80) was 113 % of control, the T/C (dose: 5.9 mg/kg/injection, schedule: Q01DX009 (ip), vehicle: saline with Tween-80) was 123 % of control and the T/C (dose: 9.0 mg/kg/injection, schedule: Q01DX009 (ip), vehicle: saline with Tween-80) was 110 % of control. The T/C (dose: 13.0 mg/kg/injection, schedule: Q01DX009 (ip), vehicle: saline with Tween-80) was 108 % of control and 118 % of control, the T/C (dose: 19.0 mg/kg/injection, schedule: Q01DX009 (ip), vehicle: saline with Tween-80) was 106 % of control and the T/C (dose: 29.0 mg/kg/injection, schedule: Q01DX009 (ip), vehicle: saline with Tween-80) was 109 % of control. The T/C (dose: 45.0 mg/kg/injection, schedule: Q01DX009 (ip), vehicle: saline with Tween-80) was 115 % of control.

`CC(=O)OCC(=O)[C@@]1(O)CC[C@H]2[C@@H]3C[C@H](C)C4=CC(=O)C=C[C@]4(C)[C@H]3[C@@H](O)C[C@@]21C` was tested, and the T/C [5] was 118 % of control, the T/C [6] was 104 % of control and the T/C [10] was 100 % of control.

With `CCCCCCCCN1COC2CCc3ccccc3C21` (stereo not given) the T/C (dose: 50.0 mg/kg/injection, schedule: Q01DX005 (ip), vehicle: saline) was 100 % of control, the T/C (dose: 100.0 mg/kg/injection, schedule: Q01DX005 (ip), vehicle: saline) was 101 % of control and the T/C (dose: 200.0 mg/kg/injection, schedule: Q01DX005 (ip), vehicle: saline) was 100 % of control.

In the case of `N#CC(Cc1ccccc1)c1ccc(Cl)cc1` (stereo not given), the T/C [11] is reported as 106 % of control, the T/C [12] is reported as 110 % of control and the T/C [13] is reported as 104 % of control. For the same compound, the T/C (dose: 400.0 mg/kg/injection, schedule: Q01DX009 (ip), vehicle: Klucel (hydroxypropylcellulose) (HPC)) was 109 % of control.

In the case of `C/C=C1/CN2C3C[C@@]45c6cc(OC)c(OC)cc6NC4(O3)C2CC1C5C(=O)OC` (stereo not given in full), the T/C (dose: 5.25 mg/kg/injection, schedule: Q01DX005 (ip), vehicle: Klucel (hydroxypropylcellulose) (HPC)) is reported as 102 % of control, the T/C (dose: 10.5 mg/kg/injection, schedule: Q01DX005 (ip), vehicle: Klucel (hydroxypropylcellulose) (HPC)) is reported as 102 % of control and the T/C (dose: 21.0 mg/kg/injection, schedule: Q01DX005 (ip), vehicle: Klucel (hydroxypropylcellulose) (HPC)) is reported as 98 % of control. The T/C (dose: 42.0 mg/kg/injection, schedule: Q01DX005 (ip), vehicle: Klucel (hydroxypropylcellulose) (HPC)) was 99 % of control.

For `[Br][Pt].[NH-]CC[N-]CC[NH-]`, the T/C (dose: 1.56 mg/kg/injection, schedule: Q01DX009 (ip), vehicle: saline) was 102 % of control, the T/C (dose: 3.13 mg/kg/injection, schedule: Q01DX009 (ip), vehicle: saline) was 100 % of control and the T/C (dose: 6.25 mg/kg/injection, schedule: Q01DX009 (ip), vehicle: saline) was 100 % of control. The T/C (dose: 12.5 mg/kg/injection, schedule: Q01DX009 (ip), vehicle: saline) was 97 % of control and the T/C (dose: 25.0 mg/kg/injection, schedule: Q01DX009 (ip), vehicle: saline) was 97 % of control.

`CCOC(=O)c1c(SCC)c(C=C(C(C)=O)C(C)=O)c2ccccn12` was tested, and the T/C (dose: 100.0 mg/kg/injection, schedule: Q01DX001 (ip), vehicle: saline with Tween-80) was 99 % of control, the T/C (dose: 200.0 mg/kg/injection, schedule: Q01DX001 (ip), vehicle: saline with Tween-80) was 95 % of control and the T/C (dose: 400.0 mg/kg/injection, schedule: Q01DX001 (ip), vehicle: saline with Tween-80) was 89 % of control.

In the case of `COc1cc(/C(=C(\CC(=O)O)C(=O)O)c2ccc3c(c2)OCO3)cc(OC)c1OC`, the T/C [7] is reported as 102 % of control and 103 % of control, the T/C [8] is reported as 103 % of control and 111 % of control and the T/C [9] is reported as 99 % of control and 100 % of control.

In the case of `O=C1CC(O)(c2ccccc2)CCS1` (stereo not given), the T/C (dose: 100.0 mg/kg/injection, schedule: Q04DX003 (ip), vehicle: Klucel (hydroxypropylcellulose) (HPC)) is reported as 99 % of control, the T/C (dose: 200.0 mg/kg/injection, schedule: Q04DX003 (ip), vehicle: Klucel (hydroxypropylcellulose) (HPC)) is reported as 107 % of control and the T/C (dose: 400.0 mg/kg/injection, schedule: Q04DX003 (ip), vehicle: Klucel (hydroxypropylcellulose) (HPC)) is reported as 106 % of control.

In the case of `CC(C)(CC(=O)OCCO)c1cc(CC(C)(C)c2cc(CC(C)(C)c3cc(CC(C)(C)C4(C)OCCO4)no3)no2)no1`, the T/C (dose: 100.0 mg/kg/injection, schedule: Q04DX002 (ip), vehicle: saline with Tween-80) is reported as 88 % of control, the T/C (dose: 200.0 mg/kg/injection, schedule: Q04DX002 (ip), vehicle: saline with Tween-80) is reported as 87 % of control and the T/C (dose: 400.0 mg/kg/injection, schedule: Q04DX002 (ip), vehicle: saline with Tween-80) is reported as 87 % of control.
